Measured values: patent publication US20050234041A1, “Substituted 1-benzazepines and derivatives thereof” (priority 2001, published 2005)
In brackets after ≈: the same amount, converted by molar mass. Like-named read-outs stand apart in the source and are kept apart here.

How the values were obtained:
Helicobacter pylori = experiment: MIC, broth dilution method, Helicobacter pylori; type: cell-based; conditions: for MIC: Helicobacter pylori
Excerpt: (§1) Antibacterial activity can be determined by several standard methods well known by those skilled in the art, including disc diffusions methods, broth dilution minimal inhibitory concentration (MIC) methods, etc., including the detailed method outlined below and as defined by the National Committee of Clinical Laboratory Standards in the United States.
(§2) MIC, Broth Dilution Method
(§3) Cultures of bacteria are initially brought up from the freezer stocks onto chocolate agar plates by streaking a loop-full, then incubated for 18 hours at 35-37° C. in a 5% CO2 incubator.
(§4) Five to 10 colonies are picked from the chocolate agar plate for subculture to Brain-Heart Infusion (BHI) broth or Mueller Hinton broth or BHI containing 4% serum and incubated as described.
(§5) Evaluate the optical density of the organisms in the wells of a 96 well microtiter plate with and without the test compound. The optical density of the organisms in the presence of an active compound will be less than the optical density of the same organism untreated. The activity of the compounds is described as either negative or the lowest concentration inhibiting growth. The results are depicted in Table III, where +/− represents the least activity and ++++ represents the greatest activity. In Table IV, the results are depicted where MIC represents the lowest concentration of antibiotic that inhibits bacterial growth.

Campylobacter jejuni = experiment: MIC, broth dilution method, Campylobacter jejuni; type: cell-based; conditions: for MIC: Campylobacter jejuni
Excerpt: as §1, §2, §3, §4, §5

bacteria = experiment: Antibacterial activity, broth dilution (Table III); type: cell-based; conditions: graded activity, organism not given
Excerpt: as §1, §2, §3, §4, §5

[1] = Table IV, MIC, lowest concentration that inhibits bacterial growth, read-out: Antibacterial Activity (micrograms/ml) Helicobacter pylori
[2] = Table IV, MIC, lowest concentration that inhibits bacterial growth, read-out: Antibacterial Activity (micrograms/ml) Campylobacter jejuni
[3] = Table IV, MIC, lowest concentration that inhibits bacterial growth
[4] = Table V, read-out: MIC (μg/mL) H. pylori
[5] = Table V, read-out: MIC (μg/mL) C. jejuni

| SMILES | MIC (Helicobacter pylori; [1]) | MIC (Campylobacter jejuni; [2]) | melting point | MIC (Helicobacter pylori; [4]) | MIC (Campylobacter jejuni; [5]) | other results |
| --- | --- | --- | --- | --- | --- | --- |
| CCN1C(=O)C(C(=O)OC(C)(C)C)CCc2ccc(OC)cc21 (racemic) [Example 12, 3(R,S)-tert-Butoxycarbonyl-1-ethyl-8-methoxy-2,3,4,5-tetrahydro-1H-1-benzazepine-2-one] | 50 µg/mL (≈ 157 µM) | > 200 µg/mL | 132 to 133 °C |  |  |  |
| COc1cc2c(cc1N1CCN(C(=O)OCc3ccccc3)CC1)CCC(C(=O)OC(C)(C)C)C(=O)N2Cc1cccc(F)c1 (racemic) [Example 31, 7-[(4-Benzyloxycarbonyl)piperazin-1-yl]-3(R,S)-tert-butoxycarbonyl-1-(3-fluorobenzyl)-8-methoxy-2,3,4,5-tetrahydro-1 H-1-benzazepine-2-one] |  |  |  |  |  | Antibacterial Activity (micrograms/ml) Helicobacter pylori (Helicobacter pylori; [3]): 0.78 micrograms/ml; Antibacterial Activity (bacteria): ++++; Antibacterial Activity (micrograms/ml) Campylobacter jejuni (Campylobacter jejuni; [3]): >200 micrograms/ml |
| CC(C)(C)OC(=O)C1CCc2cc([N+](=O)[O-])c(O)cc2NC1=O (racemic) [Example 220, 3(R,S)-tert-Butoxycarbonyl-8-hydroxyl-7-nitro-2,3,4,5-tetrahydro-1H-1-benzazepine-2-one] |  |  | 189 to 191 °C (dec.) | 8 µg/mL (≈ 24.8 µM) | 250 µg/mL (≈ 776 µM) |  |
| COc1ccc2c(c1)NC(=O)C(C(=O)NOCc1ccccc1)CC2 (stereo not shown) [Example 193, 3-Benzyloxyaminocarbonyl-8-methoxy-2,3,4,5-tetrahydro-1H-1-benzazepine-2-one] |  |  | 162 to 164 °C | 4 µg/mL (≈ 11.8 µM) | > 250 µg/mL |  |
| CCN1C(=O)C(C(=O)OC(C)(C)C)CCc2ccc(O)cc21 (racemic) [Example 178, 3(R,S)-tert-Butoxycarbonyl-1-ethyl-8-hydroxy-2,3,4,5-tetrahydro-1H-1-benzazepine-2-one] |  |  | 154 to 156 °C | 16 µg/mL (≈ 52.4 µM) | > 200 µg/mL |  |
| COc1ccc2c(c1)NC(=O)CCC2 [Example 2, 8-Methoxy-2,3,4,5-tetrahydro-1H-1-benzazepine-2-one] | > 200 µg/mL | 50 µg/mL (≈ 261 µM) | 105 to 106 °C |  |  |  |
| CCOC(=O)NC(=S)Nc1cc2c(cc1OC)NC(=O)C(C(=O)OC(C)(C)C)CC2 (racemic) [Example 176, 3(R,S)-tert-Butoxycarbonyl-7-[(ethoxycarbonylamino)thiocarbonyl)]amino-8-methoxy-2,3,4,5-tetrahydro-1H-1-benzazepine-2-one] |  |  |  |  |  | Antibacterial Activity (micrograms/ml) Helicobacter pylori (Helicobacter pylori; [3]): 4 micrograms/ml; MIC (μg/mL) H. pylori (Helicobacter pylori; Table V): 4 µg/mL (≈ 9.14 µM); Antibacterial Activity (bacteria): ++++; Antibacterial Activity (micrograms/ml) Campylobacter jejuni (Campylobacter jejuni; [3]): >250 micrograms/ml; MIC (μg/mL) C. jejuni (Campylobacter jejuni; Table V): >250, μg/mL |
| COc1cc2c(cc1Br)CCCC(=O)N2 [Example 24, 7-Bromo-8-methoxy-2,3,4,5-tetrahydro-1H-1-benzazepine-2-one] | 100 µg/mL (≈ 370 µM) | > 200 µg/mL | 180 to 182 °C |  |  |  |
| COc1cc2c(cc1[N+](=O)[O-])CCC(C(=O)OC(C)(C)C)C(=O)N2C(=O)OC(C)(C)C (racemic) [Example 195, 1,3(R,S)-Di(tert-butoxycarbonyl)-8-methoxy-7-nitro-2,3,4,5-tetrahydro-1H-1-benzazepine-2-one] |  |  | 142 to 144 °C (dec.) | 4 µg/mL (≈ 9.16 µM) | 60 µg/mL (≈ 137 µM) |  |
| CCN1C(=O)C(C(=O)OC(C)(C)C)CCc2cc(N3CCNCC3)c(OC)cc21 (racemic) [Example 18, 3(R,S)-tert-Butoxycarbonyl-1-ethyl-8-methoxy-7-(piperazin-1-yl)-2,3,4,5-tetrahydro-1H-1-benzazepine-2-one] | 50 µg/mL (≈ 124 µM) | > 200 µg/mL | 165 °C (dec.) |  |  |  |
| COc1ccc2c(c1)NC(=O)C(C(=O)OC(C)(C)C)CC2 (racemic) [Example 11, 3(R,S)-tert-Butoxycarbonyl-8-methoxy-2,3,4,5-tetrahydro-1 H-1-benzazepine-2-one] | 50 µg/mL (≈ 172 µM) | 100 to 200 µg/mL (≈ 343 to 686 µM) | 145 to 147 °C |  |  |  |
| CCN1C(=O)C(C(=O)O)CCc2ccc(OC)cc21 (racemic) [Example 5, 3(R,S)-Carboxyl-1-ethyl-8-methoxy-2,3,4,5-tetrahydro-1H-1-benzazepine-2-one] | 100 µg/mL (≈ 380 µM) | > 200 µg/mL | 120 to 121 °C |  |  |  |
| O=C1CCCc2cc([N+](=O)[O-])c(O)cc2N1 [Example 175, 8-Hydroxy-7-nitro-2,3,4,5-tetrahydro-1 H-1-benzazepine-2-one] | 1 µg/mL (≈ 4.5 µM) | 30 µg/mL (≈ 135 µM) | 239 to 240 °C | 1 µg/mL (≈ 4.5 µM) | 30 µg/mL (≈ 135 µM) |  |
| CCN1C(=O)CCCc2cc(Br)c(OC)cc21 [Example 9, 7-Bromo-1-ethyl-8-methoxy-2,3,4,5-tetrahydro-1H-1-benzazepine-2-one] | 100 µg/mL (≈ 335 µM) | > 200 µg/mL | 133 to 135 °C |  |  |  |
| CCN1C(=O)C(C(=O)OC(C)(C)C)CCc2cc(Br)c(OC)cc21 (racemic) [Example 13, 7-Bromo-3(R,S)-tert-butoxycarbonyl-1-ethyl-8-methoxy-2,3,4,5-tetrahydro-1H-1-benzazepine-2-one] | 6.25 to 12.5 µg/mL (≈ 15.7 to 31.4 µM) | > 200 µg/mL | 131 to 132 °C |  |  |  |
| COc1ccc2c(c1)N(CC#N)C(=O)C(C(=O)OC(C)(C)C)CC2 (racemic) [Example 196, 3(R,S)-tert-Butoxycarbonyl-1-cyanomethyl-8-methoxy-2,3,4,5-tetrahydro-1H-1-benzazepine-2-one] |  |  |  | 4 µg/mL (≈ 12.1 µM) | 30 µg/mL (≈ 90.8 µM) |  |
| CCOC(=O)C1CCc2ccc(OC)cc2NC1=O (racemic) [Example 3, 3(R,S)-Ethoxycarbonyl-8-methoxy-2,3,4,5-tetrahydro-1H-1-benzazepine-2-one] | 50 to 100 µg/mL (≈ 190 to 380 µM) | 100 µg/mL (≈ 380 µM) | 89 to 91 °C |  |  |  |
| CCOC(=O)NC(=O)N(C(=O)NC(=O)OCC)c1cc2c(cc1OC)NC(=O)C(C(=O)OC(C)(C)C)CC2 (racemic) [Example 204, 3(R,S)-tert-Butoxycarbonyl-7-di(ethoxycabonylaminocarbonyl)amino-8-methoxy-2,3,4,5-tetrahydro-1H-1-benzazepine-2-one] |  |  |  |  |  | MIC (μg/mL) H. pylori (Helicobacter pylori; Table V): 60 µg/mL (≈ 112 µM); MIC (μg/mL) C. jejuni (Campylobacter jejuni; Table V): >250, μg/mL |
| COc1ccc2c(c1)N(C(=O)OC(C)(C)C)C(=O)C(C(=O)OC(C)(C)C)CC2 (racemic) [Example 23, 1-tert-Butoxycarbonyl-3(R,S)-tert-butoxycarbonyl-8-methoxy-2,3,4,5-tetrahydro-1H -benzazepine-2-one] | 50 µg/mL (≈ 128 µM) | 200 µg/mL (≈ 511 µM) | 91 to 92 °C |  |  |  |
| CCOC(=O)C1CCc2ccc(OC)cc2N(CC)C1=O (racemic) [Example 4, 3(R,S)-Ethoxycarbonyl-1-ethyl-8-methoxy-2,3,4,5-tetrahydro-1H-1-benzazepine-2-one] | 125 to 250 µg/mL (≈ 429 to 858 µM) | 50 µg/mL (≈ 172 µM) |  |  |  |  |
| CCN1C(=O)C(C(=O)OC(C)(C)C)CCc2cc(N3CCN(C(=O)OC(C)(C)C)CC3)c(OC)cc21 (racemic) [Example 14, 3(R,S)-tert-Butoxycarbonyl-7-[(4-tert-butoxycarbonyl-piperazin)-1-yl]-1-ethyl-8-methoxy-2,3,4,5-tetrahydro-1H-1-benzazepine-2-one] |  |  |  |  |  | Antibacterial Activity (micrograms/ml) Helicobacter pylori (Helicobacter pylori; [3]): 50 micrograms/ml; Antibacterial Activity (micrograms/ml) Campylobacter jejuni (Campylobacter jejuni; [3]): >200 micrograms/ml |
| CCN1C(=O)CCCc2ccc(Br)cc21 [Example 191, 8-Bromo-1-ethyl-2,3,4,5-tetrahydro-1H-1-benzazepine-2-one] |  |  |  | 16 µg/mL (≈ 59.7 µM) | 8 µg/mL (≈ 29.8 µM) |  |
| O=C1CCCc2c(O)cccc2N1 [Example 188, 6-Hydroxy-2,3,4,5-tetrahydro-1H-1-benzazepine-2-one] |  |  |  | 32 µg/mL (≈ 181 µM) | > 250 µg/mL |  |
